Laboratory results reported in patent US20260055117A1, “SUBSTITUTED PYRIDONE GPR84 ANTAGONISTS AND USES THEREOF” (Liminal BioSciences Limited, priority 2022, published 2026).

Biological target: T1, human GPR84 receptor (Homo sapiens, UniProt Q9NQS5)
T1 construct: host or cells: HEK293, transiently transfected
Experiment: Gαi biosensor BRET assay (GPR84 antagonism vs agonist ZQ-16)
Type: cell-based
Conditions: HEK293 cells, 200 nmol/L agonist ZQ-16; for IC50: Gαi biosensor BRET assay; for inhibition at 2 µM: tested at 2 μM (concentration code A); for inhibition at 10 µM: tested at 10 μM (concentration code D)
From the text: Background—The following assays can be used for determination of GPR84 activation in living HEK293 cells. The Gai BRET biosensor (Gagnon et al., 2018; Gales et al., 2006. Nat Struct Mol Biol. 13, 778-86; Saulieres et al., 2012. Nat Chem Biol. 8, 622-30) allows to directly monitor GPR84-mediated activation of Gai. The Gai biosensor consists of a Rluc8-tagged Gai2 subunit, a GFP10-tagged Gy2 subunit, and an untagged GB1. Agonist stimulation and GPR84 activation triggers a physical separation between the RLuc8-Gai donor and the GFP10-Gy2 acceptor, resulting in a decrease in BRET signal whose amplitude is correlated to ligand efficacy (Gales et al., 2006). Moreover, signaling functions of GPCRs are tightly regulated by endocytosis, the targeting of receptors to endosomes and their sorting to lysosomes or recycling to the plasma membrane. The early endosomes (EEs) trafficking assay (Namkung et al., 2016. Nat Commun. 7, 12178) uses Rluc8-tagged GPR84 and Renilla GFP (rGFP) attached to the FYVE domain from human endofin/zinc finger FYVE domain-containing protein 16, which binds phosphatidylinositol 3-phosphate in EEs. Agonist stimulation of GPR84-Rluc8 leads to trafficking of the receptor to EEs, and ensuing increase of the donor concentration relative to the rGFP-FYVE acceptor anchored in the same cellular compartment, and thus results in an increase in BRET signal.
Plasmids—The cDNA clones for human GPR84 receptor, human Gai2, GB1, and Gy2 were obtained from the cDNA Resource Center (www.cdna.org). GFP10 (F64L, S147P, S202F and H231L variant of Aequorea victoria Green Fluorescent Protein) gBlocks gene fragments (Integrated DNA Technologies, IA) and linker were inserted in frame at the N-terminus of human Gy2. Rluc8 (A55T, C124A, S130A, K136R, A143M, M185V, M253L, and S287L variant of the Renilla reniformis luciferase) gBlocks gene fragment was inserted with linkers in frame in between residues 91 and 92 of Gai2 or at the C-terminus of GPR84. The FYVE domain from human endofin (residues Q739 to K806) attached in frame at the C terminus of a humanized Renilla GFP (rGFP), were synthesized as gBlocks gene fragments.
Bioluminescence Resonance Energy Transfer (BRET) Measurement-HEK293 cells were transfected with GPR84-Rluc8 and rGFP-FYVE for the EEs trafficking biosensor or with GPR84, Gai2-Rluc8, GFP10-Gy2, and GB1 for the Ga; biosensor. The following day, transiently transfected cells were seeded in 96-well white clear bottom microplates coated with poly-D-lysine and left in culture for 24 hours. Cells were washed once with Tyrode's buffer (140 mmol/L NaCl, 1 mmol/L CaCl2), 2.7 mmol/L KCl, 0.49 mmol/L MgCl2, 0.37 mmol/L NaH2PO4, 5.6 mmol/L glucose, 12 mmol/L NaHCO3, and 25 mmol/L HEPES, pH 7.5) before performing assays in Tyrode's buffer. Test compounds were incubated with cells for 5 (Gai) or 15 (EEs) minutes at 37° C. before addition of 200 nmol/L of the GPR84 agonist ZQ-16 (2-(Hexylthio)-6-hydroxy-4 (3H)-pyrimidinone) for 5 minutes at room temperature (Gai) or 30 minutes at 37° C. (EEs). The Rluc8 substrate coelenterazine 400A (Prolume, Lakeside, A Z) was added at a final concentration of 5 μmol/L and BRET readings were collected using an Infinite M1000 microplate reader (Tecan, Morrisville, N C). BRET2 readings between Rluc8 and GFP10 or rGFP were collected by sequential integration of the signals detected in the 370 to 450 nm (Rluc8) and 510 to 540 nm (GFP10, rGFP) windows. The BRET signal was calculated as the ratio of light emitted by acceptor (GFP10, rGFP) over the light emitted by donor (Rluc8). The values were corrected to net BRET by subtracting the background BRET signal obtained in cells transfected with Rluc8 constructs alone. Ligand-promoted net BRET values were calculated by subtracting vehicle-induced net BRET from ligand-induced net BRET.

T1 sequence (Q9NQS5 whole entry): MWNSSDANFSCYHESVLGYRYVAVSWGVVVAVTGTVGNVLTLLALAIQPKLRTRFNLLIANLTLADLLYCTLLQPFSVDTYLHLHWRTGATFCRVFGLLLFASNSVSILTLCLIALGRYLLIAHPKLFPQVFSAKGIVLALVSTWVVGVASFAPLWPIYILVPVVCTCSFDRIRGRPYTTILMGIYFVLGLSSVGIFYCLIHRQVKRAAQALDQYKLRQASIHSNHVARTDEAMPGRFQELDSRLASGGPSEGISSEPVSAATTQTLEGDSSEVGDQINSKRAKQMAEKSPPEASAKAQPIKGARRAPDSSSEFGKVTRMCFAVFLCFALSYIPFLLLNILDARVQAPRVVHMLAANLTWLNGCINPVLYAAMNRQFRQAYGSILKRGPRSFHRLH

For Cc1cc(OCC(=O)N2CC[C@@H](S(C)(=O)=O)C2)cc(=O)n1[C@H](C)c1ccc(C#CC2CC2)cc1 [Compound I-252], the IC50 was no more than 0.3 µM and the inhibition at 2 µM was greater than 75%.

Cc1cc(OCS(=O)(=O)N(C)C)cc(=O)n1[C@H](C)c1ccc(C#CC2CC2)cc1 [Compound I-41] gave an inhibition at 10 µM of 50 to 75%.

In the case of Cc1cc(OCC(=O)N2CC3(CCO3)C2)cc(=O)n1[C@H](C)c1ccc(C#CC2CC2)cc1 [Compound I-289], the IC50 is reported as no more than 0.3 µM and the inhibition at 10 µM is reported as greater than 75%.

Work on Cc1cc(OCC(=O)NC2CC2)cc(=O)n1[C@H](C)c1ccc(C#CC2CC2)cc1 [Compound I-50] yielded an IC50 of 0.3 to 1 µM and an inhibition at 10 µM greater than 75%.

In the case of Cc1cc(OCC(=O)N(C)C)cc(=O)n1[C@H](C)c1ccc(C#CC2(O)CC2)cc1 [Compound I-210], the inhibition at 10 µM is reported as greater than 75%.

Cc1cc(OCC(=O)N(C)C)cc(=O)n1[C@H](C)c1ccc(C#CC2CC2)c(N(C)C)c1 [Compound I-38] gave an inhibition at 10 µM greater than 75%.

In the case of Cc1cc(OCC(=O)N2CC[C@H](O)C2)cc(=O)n1[C@H](C)c1ccc(C#CC2CC2)cc1 [Compound I-242], the IC50 is reported as no more than 0.3 µM and the inhibition at 2 µM is reported as greater than 75%.

Work on Cc1nc(OCC(=O)N(C)C)cc(=O)n1[C@H](C)c1ccc(C#CC2CC2)cc1 [Compound I-217] yielded an IC50 of no more than 0.3 µM and an inhibition at 2 µM greater than 75%.

With Cc1cc(OCc2ncncc2Cl)cc(=O)n1[C@H](C)c1ccc(C#CC2CC2)cc1 [Compound I-15] the IC50 was no more than 0.3 µM and the inhibition at 10 µM was greater than 75%.

Cc1cc(OCC(=O)N2CC3CCC2CO3)cc(=O)n1[C@H](C)c1ccc(C#CC2CC2)cc1 (some centres unmarked) [Compound I-327] was tested, and the IC50 was 1 to 3 µM and the inhibition at 2 µM was greater than 75%.

In the case of Cc1cc(OCC(=O)N2CC(C)(C#N)C2)cc(=O)n1[C@H](C)c1ccc(C#CC2CC2)cc1 [Compound I-343], the IC50 is reported as 1 to 3 µM and the inhibition at 2 µM is reported as greater than 75%.

Work on Cc1cc(OCC(=O)O)cc(=O)n1[C@H](C)c1ccc(C#CC2CC2)cc1 [Compound I-21] yielded an inhibition at 10 µM of 50 to 75%.

Work on Cc1nc(OCC(=O)N2CCC[C@@H]2C(=O)O)cc(=O)n1[C@H](C)c1ccc(C#CC2CC2)cc1 [Compound I-296] yielded an inhibition at 10 µM of 50 to 75%.

For Cc1cc(OCC(=O)N2CCC3(CC3)C2)cc(=O)n1[C@H](C)c1ccc(C#CC2CC2)cc1 [Compound I-319], the IC50 was no more than 0.3 µM and the inhibition at 2 µM was greater than 75%.

Cc1cc(OCC(=O)N2CC3C(C2)C3(C)C)cc(=O)n1[C@H](C)c1ccc(C#CC2CC2)cc1 (some centres unmarked) [Compound I-285] was tested, and the IC50 was 0.3 to 1 µM and the inhibition at 10 µM was greater than 75%.

Cc1cc(OCC(=O)N2CC3(CC3)C2)cc(=O)n1[C@H](C)c1ccc(C#CC2CC2)cc1 [Compound I-344] was tested, and the IC50 was no more than 0.3 µM and the inhibition at 2 µM was greater than 75%.

Cc1cc(OCC(=O)N2CCC[C@@H]2C#N)cc(=O)n1[C@H](C)c1ccc(C#CC2CC2)cc1 [Compound I-306] gave an IC50 of 0.3 to 1 µM and an inhibition at 2 µM greater than 75%.

Cc1cc(OCC(=O)N(C)C)cc(=O)n1[C@H](C)c1ccc(C#CC2(C(F)(F)F)CC2)cc1 [Compound I-56] gave an IC50 of no more than 0.3 µM and an inhibition at 10 µM greater than 75%.

With Cc1cc(OCC(=O)N2CC(F)(F)C2)cc(=O)n1[C@H](C)c1ccc(C#CC2CC2)cc1 [Compound I-7] the IC50 was 0.3 to 1 µM and the inhibition at 10 µM was greater than 75%.

Cc1cc(OCC(=O)N2CC[C@H]2C(=O)O)cc(=O)n1[C@H](C)c1ccc(C#CC2CC2)cc1 [Compound I-301] was tested, and the IC50 was 1 to 3 µM and the inhibition at 10 µM was greater than 75%.

Work on Cc1cc(OCC(=O)N2CC(C)C2)cc(=O)n1[C@H](C)c1ccc(C#CC2CC2)cc1 [Compound I-290] yielded an IC50 of no more than 0.3 µM and an inhibition at 2 µM greater than 75%.

In the case of Cc1cc(OCC(=O)N(C)C)cc(=O)n1[C@H](C)c1ccc(C#CC2(C)CC2)cc1 [Compound I-80], the IC50 is reported as no more than 0.3 µM and the inhibition at 10 µM is reported as greater than 75%.

For Cc1nc(OCC(=O)N(C)C)cc(=O)n1[C@@H](C)c1ccc(C#CC2CC2)cc1 [Compound I-218], the inhibition at 10 µM was less than 25%.

Cc1cc(OCC2(N(C)C)CC2)cc(=O)n1[C@H](C)c1ccc(C#CC2CC2)c(F)c1 [Compound I-31] gave an inhibition at 10 µM of 25 to 50%.

Work on Cc1cc(OCC(=O)N2CCOCC2)cc(=O)n1[C@H](C)c1ccc(C#CC2CC2)c(F)c1 [Compound I-27] yielded an inhibition at 10 µM greater than 75%.

Cc1cc(OCC(=O)N2CC[C@H](C3CC3)C2)cc(=O)n1[C@H](C)c1ccc(C#CC2CC2)cc1 [Compound I-312] gave an inhibition at 2 µM greater than 75%.

Cc1cc(OCC(=O)N(C)C2CC2)cc(=O)n1[C@H](C)c1ccc(C#CC2CC2)cc1 [Compound I-42] was tested, and the IC50 was no more than 0.3 µM and the inhibition at 10 µM was greater than 75%.

Cc1cc(OCC(N(C)C)C(F)(F)F)cc(=O)n1[C@H](C)c1ccc(C#CC2CC2)cc1 (some centres unmarked) [Compound I-86] gave an inhibition at 10 µM of 50 to 75%.

Cc1cc(OCC2COCCO2)cc(=O)n1C(C)c1ccc(OCC2CCN(C(=O)C3CC3)CC2)c(F)c1 (centres unmarked) [Compound I-16] was tested, and the inhibition at 10 µM was less than 25%.

In the case of Cc1cc(OCC(=O)N2CC[C@H](N(C)S(C)(=O)=O)C2)cc(=O)n1[C@H](C)c1ccc(C#CC2CC2)cc1 [Compound I-337], the inhibition at 10 µM is reported as greater than 75%.

Compound Cc1cc(OCS(N)(=O)=O)cc(=O)n1[C@H](C)c1ccc(C#CC2CC2)cc1 [Compound I-48] has an inhibition at 10 µM greater than 75%.

Cc1cc(OCC(=O)N2CCCC2)cc(=O)n1[C@H](C)c1ccc(C#CC2(C)CC2)cc1 [Compound I-88] was tested, and the IC50 was 0.3 to 1 µM and the inhibition at 10 µM was greater than 75%.

Work on Cc1cc(OCC2OCCC(C)(C)O2)cc(=O)n1[C@H](C)c1ccc(C#CC2CC2)cc1 (some centres unmarked) [Compound I-40] yielded an inhibition at 10 µM of 25 to 50%.

Cc1cc(COCC(=O)N(C)C)cc(=O)n1[C@H](C)c1ccc(C#CC2CC2)cc1 [Compound I-340] gave an inhibition at 10 µM of 50 to 75%.

For Cc1cc(OCC(=O)N(C)C)cc(=O)n1[C@H](C)c1ccc(-c2nnn[nH]2)cc1 [Compound I-266], the inhibition at 10 µM was less than 25%.

For CCCCCCOc1ccc([C@@H](C)n2c(C)cc(OCc3ncccn3)cc2=O)cc1 [Compound I-130], the inhibition at 10 µM was less than 25%.

For Cc1cc(OCC(=O)N(C)CC(F)(F)F)cc(=O)n1[C@H](C)c1ccc(C#CC2CC2)cc1 [Compound I-232], the IC50 was no more than 0.3 µM and the inhibition at 2 µM was greater than 75%.

Compound Cc1cc(OCC(=O)N2CCOCC2)cc(=O)n1[C@H](C)c1ccc(C#CC2CC2)cc1 [Compound I-3] has an IC50 of no more than 0.3 µM and an inhibition at 2 µM greater than 75%.

Compound Cc1cc(OCC(=O)N2CC[C@@H](F)C2)cc(=O)n1[C@H](C)c1ccc(C#CC2CC2)cc1 [Compound I-243] has an IC50 of no more than 0.3 µM and an inhibition at 2 µM greater than 75%.

Cc1cc(OCc2nncn2C)cc(=O)n1[C@H](C)c1ccc(C#CC2CC2)cc1 [Compound I-330] was tested, and the IC50 was no more than 0.3 µM and the inhibition at 2 µM was greater than 75%.

Cc1cc(OCC(=O)N(C2CC2)C2CC2)cc(=O)n1[C@H](C)c1ccc(C#CC2CC2)cc1 [Compound I-278] was tested, and the IC50 was no more than 0.3 µM and the inhibition at 2 µM was greater than 75%.

Work on Cc1cc(OCC(=O)N2C[C@@H](O)[C@@H](O)C2)cc(=O)n1[C@H](C)c1ccc(C#CC2CC2)cc1 [Compound I-316] yielded an IC50 of no more than 0.3 µM and an inhibition at 2 µM greater than 75%.

With Cc1cc(OCc2ncccn2)cc(=O)n1[C@H](C)c1ccc(/C=C/C2CC2)cc1 [Compound I-149] the inhibition at 10 µM was less than 25%.

Work on Cc1cc(OCC(=O)N(C)C)cc(=O)n1[C@H](C)c1ccc(C#CC2CC2)c(C2CC2)c1 [Compound I-33] yielded an inhibition at 10 µM greater than 75%.

Cc1cc(OCC(=O)N2CCC[C@H]2C2CC2)cc(=O)n1[C@H](C)c1ccc(C#CC2CC2)cc1 [Compound I-308] was tested, and the IC50 was 0.3 to 1 µM and the inhibition at 2 µM was greater than 75%.
